Experimental findings from ChEMBL document CHEMBL1149006, “Isolation and characterization of a new triterpene from Iris missouriensis” (1986) are described below.

In the experiment the test system is P388. Nature of the experiment: Cytotoxicity against mouse P388 cells. In kind it is functional. As to conditions: read-out: ED50 (the source's name).

≈ marks a conversion by molar mass, not a printed value.

As to `CC[C@H](/C=C/[C@@H](C)[C@H]1CC[C@H]2[C@@H]3[C@@H](O)C=C4C[C@@H](O)CC[C@]4(C)[C@H]3CC[C@]12C)C(C)C`, the EC50 was found to be 0.1 µg/mL (≈ 0.233 µM).
The value for `CC[C@H](CC[C@@H](C)[C@H]1CC[C@H]2[C@@H]3[C@@H](O)C=C4C[C@@H](O)CC[C@]4(C)[C@H]3CC[C@]12C)C(C)C` was 0.2 µg/mL (≈ 0.464 µM).
